According to US9283269B2, “Method for reducing the allergenicity of animal dander” (IMMUNOPATH PROFILE, INC., priority 1998, dated 2016):

Experiments:
[1] = test system: dermatitis and fungal infection of the toe nail; conditions: 50% acetic acid, brief periods of application
Method: Ammoniated butyric acid is […]. […] The acetic acid represents the deaminated glycine in this subject composition can be applied one to seven days per week and can be applied multiple times in one day. The duration of application can range from 2 to 60 minutes (or any other chosen interval) per application.

breast cancer cells = assay: Breast cancer cell suspension in vitro treated with polysorbate 80; type: cell-based
Source text: Parkinson's disease also has an abnormal protein alpha synuculein intracytoplasmic aggregate/inclusion. Lewy bodies instead of normal random coil repeat proteins structures, cancer with deficiency in HLB modulation and adequate surfactant required by DNA progress through normal rheologic flow required in mitosis with normal cellular and nuclear division and sharing of DNA genetic traits and the resultant formation of normal daughter cells. The darkly stained nuclear mitotic figures makes its appearance as an aggregate plaque or precipitate removed from the normal flow of nuclear function and the microcirculation of nuclear DNA genetic nuclear focus and originating cell division. Response to hydrophilic surfactant in vitro is supportive of this thesis (83 percent of the breast cancer cells were killed in 24 to 48 hours with exposure to 0.25 percent polysorbate 80, Tween 80). Again countering the poor solubility of the plaque-like mechanism disease which contributes to metabolization and the normal metabolic turnover of all cell tissue and organs brings about a disease-free therapeutic response. About one-third of these cancers are associated with inflammatory immunologic response T lymphocytic-plasma cell changes and are of poor prognosis. Response to HLB modulation towards a hydrophilic HLB has provided an 83 percent in-vitro encouraging response reported in other embodiment.
Successful anticancer therapeutic activity cancer tissue cell in vitro′ breast cancer cell suspension comparative trials with treatment with 0.25 percent to 0.5 percent polysorbate 80 (Mean 80) with 83 percent reduction in 24 to 48 hours of cancer cell mitochondrial activity after HLB modulation with tween 80, and 50 percent reduction in cancer cells' abnormal morphology and abnormal mitosis on cytopathologic review.

[2] = cited from earlier work; for absorption after oral administration: gastrointestinal tract
[3] = ionizing side chain of the amino acid residue; cited from earlier work
[4] = test system: pediatric liver transplant recipients; conditions: of 64 pediatric liver transplant recipients; cited from earlier work
[5] = uric acid crystals; cited from earlier work

## CC(=O)O [acetic acid]
[1]
  effect on dermatitis and fungal toe nail infection: dramatically reverse long-term dermatitis and, fungal infection of the toe nail

## CCCCCCCC/C=C\CCCCCCCC(=O)OCCOCC(OCCO)C1OCC(OCCO)C1OCCO (stereo not drawn) [polysorbate 80]
Breast cancer cells; 0.25 percent polysorbate 80, 24 to 48 hours
  breast cancer cells killed: 83%
Breast cancer cells; 0.25 percent to 0.5 percent polysorbate 80
  reduction in cancer cells' abnormal morphology and abnormal mitosis on cytopathologic review: 50%
Breast cancer cells; 0.25 percent to 0.5 percent polysorbate 80, 24 to 48 hours
  reduction of cancer cell mitochondrial activity: 83%

## COc1ccc2c(c1)c(CC(=O)O)c(C)n2C(=O)c1ccc(Cl)cc1 [Indomethacin]
[2]; after long-term administration
  steady-state concentrations in plasma: approximately 0.5 micrograms/ml
[2]; fasting subject, oral
  time to peak concentration in plasma: ≤ 2 h
[2]
  absorption after oral administration: rapidly and almost completely absorbed
[2]; in vivo
  bound to plasma proteins: 90%
[2]; inactive metabolites
  converted by O-demethylation: about 50%
  converted by conjugation with glucuronic acid: about 10%
[2]; not definitely determined
  concentrations in plasma required for an anti-inflammatory effect: less than 1 microgram per ml

## NCCCC[C@H](N)C(=O)O [Lys, lysine]
[3]
  pK of side chain: 9.8-10.4
  ΔH: 10 to 11.6 kcal/mol

## O=C(O)c1cc(/N=N/c2ccc(S(=O)(=O)Nc3ccccn3)cc2)ccc1O [Sulfasalazine, salicylazosulfapyridine]
[2]
  absorption after oral administration: poorly absorbed

## C=CC[C@@H]1/C=C(\C)C[C@H](C)C[C@H](OC)[C@H]2O[C@@](O)(C(=O)C(=O)N3CCCC[C@H]3C(=O)O[C@H](/C(C)=C/[C@@H]3CC[C@@H](O)[C@H](OC)C3)[C@H](C)[C@@H](O)CC1=O)[C@H](C)C[C@@H]2OC [tacrolimus]
[4]
  patients who experienced food allergies: 17%
  patients who experienced food allergies (number): 11

## N[C@@H](CCC(=O)O)C(=O)O [Glu, glutamic acid]
[3]
  pK of side chain: 4.3-4.6

## N[C@@H](CS)C(=O)O [Cys, cysteine]
[3]
  pK of side chain: 7.5-8.5

## N[C@@H](CC(=O)O)C(=O)O [Asp, aspartic acid]
[3]
  pK of side chain: 4.2-4.5

## N[C@@H](Cc1c[nH]cn1)C(=O)O [His, histidine]
[3]
  pK of side chain: 6.2-6.5
  ΔH: 6.93 to 7.53 kcal/mol

## N=C(N)NCCC[C@H](N)C(=O)O [Arg, arginine]
[3]
  ΔH: 11.6 to 13 kcal/mol

## O=c1[nH]c(=O)c2[nH]c(=O)[nH]c2[nH]1 [uric acid]
[5]
  solubility in glycerine: very soluble
  solubility in water: marked insolubility
